Test [1] addresses T1, HiBit-BRM fusion protein (Homo sapiens, UniProt P51531).
T1 construct: expressed in transfected cells
Kind of test: HiBiT-BRM cell-based degradation assay (Nano-Glo HiBiT Lytic Detection, 24 h). The note with it: HeLa cells expressing HiBiT-BRM; for DC50: read-out: BRM HiBit Degradation IC50; for BRM HiBit Degradation Maximum measured: top dose 30 μM. The procedure:
Procedure: A stable HeLa cell line expressing HiBiT-BRM was generated. On day 0, 5000 cells were seeded in 40 μL of media into each well of 384-well cell culture plates. On day 1, cells were treated with 120 nL DMSO or 120 nL of 3-fold serially DMSO-diluted compounds (10 points in duplicate with 30 μM as final top dose). Subsequently plates were incubated for 24 h in a standard tissue culture incubator and equilibrated at room temperature for 15 minutes. Nano-Glo HiBiT Lytic Detection System (Promega N3050) reagent was freshly prepared and 20 ul was added to each well. Upon addition of this LgBit-containing reagent, the HiBiT and LgBiT proteins associate to form the luminescent NanoBiT luciferase. The plates were shaken for 10 minutes at room temperature and the bioluminescence read using an EnVision plate reader (PerkinElmer).
(§1) The degradation % was calculated using the following formula: % degradation=100%−100%×(LumSample−LumLC)/(LumHC−LumLC). DMSO treated cells are employed as High Control (HC) and 2 μM of a known BRM/BRG1 degrader standard treated cells are employed as Low Control (LC).

For test [2], the target named is T2, HiBit-BRG1 fusion protein (Homo sapiens, UniProt P51532).
T2 construct: expressed in transfected cells
The test is described as follows: HiBiT-BRG1 cell-based degradation assay (Nano-Glo HiBiT Lytic Detection, 24 h). The note with it: HeLa cells expressing HiBit-BRG1 and LgBit; for DC50: read-out: BRG1 HiBit Degradation IC50; for Dmax: HeLa, top dose 30 μM, read-out: BRG1 HiBit Degradation Maximum measured. The procedure:
Procedure: A stable HeLa cell line expressing HiBiT-BRM was generated. On day 0, 5000 cells were seeded in 40 μL of media into each well of 384-well cell culture plates. […] Nano-Glo HiBiT Lytic Detection System (Promega N3050) reagent was freshly prepared and 20 ul was added to each well. Upon addition of this LgBit-containing reagent, the HiBiT and LgBiT proteins associate to form the luminescent NanoBiT luciferase. The plates were shaken for 10 minutes at room temperature and the bioluminescence read using an EnVision plate reader (PerkinElmer).
For measurement of BRG1 degradation, a stable HeLa cell line expressing HiBit-BRG1 and LgBit was generated. The same protocol as above was then followed.
as §1

The values that follow come from US12662479B2 (Foghorn Therapeutics Inc., priority 2020, dated 2026).

T1 sequence (P51531 whole entry, the tested form may be a part): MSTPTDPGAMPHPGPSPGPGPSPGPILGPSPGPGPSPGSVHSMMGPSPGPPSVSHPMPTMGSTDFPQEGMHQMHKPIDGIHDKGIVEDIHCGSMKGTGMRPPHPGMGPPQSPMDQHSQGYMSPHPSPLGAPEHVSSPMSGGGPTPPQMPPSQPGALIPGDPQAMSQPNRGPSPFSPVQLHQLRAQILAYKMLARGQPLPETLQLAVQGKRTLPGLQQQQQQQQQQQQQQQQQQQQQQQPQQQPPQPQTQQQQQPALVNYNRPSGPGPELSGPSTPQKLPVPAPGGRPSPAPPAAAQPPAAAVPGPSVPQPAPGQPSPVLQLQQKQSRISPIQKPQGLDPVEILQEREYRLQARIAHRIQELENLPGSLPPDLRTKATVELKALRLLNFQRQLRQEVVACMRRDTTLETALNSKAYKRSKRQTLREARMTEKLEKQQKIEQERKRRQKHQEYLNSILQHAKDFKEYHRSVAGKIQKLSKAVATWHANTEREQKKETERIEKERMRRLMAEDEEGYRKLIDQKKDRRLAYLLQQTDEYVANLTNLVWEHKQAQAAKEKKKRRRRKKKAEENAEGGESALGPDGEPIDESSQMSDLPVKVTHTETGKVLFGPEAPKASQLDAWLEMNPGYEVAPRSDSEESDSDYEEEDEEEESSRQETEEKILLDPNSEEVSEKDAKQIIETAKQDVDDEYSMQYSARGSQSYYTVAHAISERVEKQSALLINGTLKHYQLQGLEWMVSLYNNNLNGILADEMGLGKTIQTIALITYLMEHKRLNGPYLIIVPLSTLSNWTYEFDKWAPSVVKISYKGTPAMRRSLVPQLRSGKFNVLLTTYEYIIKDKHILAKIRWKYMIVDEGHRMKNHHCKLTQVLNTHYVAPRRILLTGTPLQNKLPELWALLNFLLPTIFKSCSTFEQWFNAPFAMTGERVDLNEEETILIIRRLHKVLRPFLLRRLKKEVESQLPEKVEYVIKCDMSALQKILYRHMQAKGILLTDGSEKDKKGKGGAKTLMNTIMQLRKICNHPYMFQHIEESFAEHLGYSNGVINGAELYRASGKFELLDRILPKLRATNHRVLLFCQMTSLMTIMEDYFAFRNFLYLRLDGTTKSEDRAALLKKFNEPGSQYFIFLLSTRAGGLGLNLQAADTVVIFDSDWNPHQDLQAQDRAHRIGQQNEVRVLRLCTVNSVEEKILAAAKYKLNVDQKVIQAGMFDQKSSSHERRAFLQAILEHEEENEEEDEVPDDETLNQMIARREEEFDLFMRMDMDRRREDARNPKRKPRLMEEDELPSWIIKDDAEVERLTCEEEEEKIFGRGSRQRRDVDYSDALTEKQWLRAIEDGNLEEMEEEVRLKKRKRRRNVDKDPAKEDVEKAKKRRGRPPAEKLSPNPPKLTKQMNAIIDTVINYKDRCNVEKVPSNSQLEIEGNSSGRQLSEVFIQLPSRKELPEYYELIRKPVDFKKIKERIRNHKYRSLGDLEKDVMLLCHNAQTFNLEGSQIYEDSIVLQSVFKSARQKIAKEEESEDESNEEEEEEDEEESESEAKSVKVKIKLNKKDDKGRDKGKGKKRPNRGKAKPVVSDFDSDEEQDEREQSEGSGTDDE
T2 sequence (P51532 whole entry, the tested form may be a part): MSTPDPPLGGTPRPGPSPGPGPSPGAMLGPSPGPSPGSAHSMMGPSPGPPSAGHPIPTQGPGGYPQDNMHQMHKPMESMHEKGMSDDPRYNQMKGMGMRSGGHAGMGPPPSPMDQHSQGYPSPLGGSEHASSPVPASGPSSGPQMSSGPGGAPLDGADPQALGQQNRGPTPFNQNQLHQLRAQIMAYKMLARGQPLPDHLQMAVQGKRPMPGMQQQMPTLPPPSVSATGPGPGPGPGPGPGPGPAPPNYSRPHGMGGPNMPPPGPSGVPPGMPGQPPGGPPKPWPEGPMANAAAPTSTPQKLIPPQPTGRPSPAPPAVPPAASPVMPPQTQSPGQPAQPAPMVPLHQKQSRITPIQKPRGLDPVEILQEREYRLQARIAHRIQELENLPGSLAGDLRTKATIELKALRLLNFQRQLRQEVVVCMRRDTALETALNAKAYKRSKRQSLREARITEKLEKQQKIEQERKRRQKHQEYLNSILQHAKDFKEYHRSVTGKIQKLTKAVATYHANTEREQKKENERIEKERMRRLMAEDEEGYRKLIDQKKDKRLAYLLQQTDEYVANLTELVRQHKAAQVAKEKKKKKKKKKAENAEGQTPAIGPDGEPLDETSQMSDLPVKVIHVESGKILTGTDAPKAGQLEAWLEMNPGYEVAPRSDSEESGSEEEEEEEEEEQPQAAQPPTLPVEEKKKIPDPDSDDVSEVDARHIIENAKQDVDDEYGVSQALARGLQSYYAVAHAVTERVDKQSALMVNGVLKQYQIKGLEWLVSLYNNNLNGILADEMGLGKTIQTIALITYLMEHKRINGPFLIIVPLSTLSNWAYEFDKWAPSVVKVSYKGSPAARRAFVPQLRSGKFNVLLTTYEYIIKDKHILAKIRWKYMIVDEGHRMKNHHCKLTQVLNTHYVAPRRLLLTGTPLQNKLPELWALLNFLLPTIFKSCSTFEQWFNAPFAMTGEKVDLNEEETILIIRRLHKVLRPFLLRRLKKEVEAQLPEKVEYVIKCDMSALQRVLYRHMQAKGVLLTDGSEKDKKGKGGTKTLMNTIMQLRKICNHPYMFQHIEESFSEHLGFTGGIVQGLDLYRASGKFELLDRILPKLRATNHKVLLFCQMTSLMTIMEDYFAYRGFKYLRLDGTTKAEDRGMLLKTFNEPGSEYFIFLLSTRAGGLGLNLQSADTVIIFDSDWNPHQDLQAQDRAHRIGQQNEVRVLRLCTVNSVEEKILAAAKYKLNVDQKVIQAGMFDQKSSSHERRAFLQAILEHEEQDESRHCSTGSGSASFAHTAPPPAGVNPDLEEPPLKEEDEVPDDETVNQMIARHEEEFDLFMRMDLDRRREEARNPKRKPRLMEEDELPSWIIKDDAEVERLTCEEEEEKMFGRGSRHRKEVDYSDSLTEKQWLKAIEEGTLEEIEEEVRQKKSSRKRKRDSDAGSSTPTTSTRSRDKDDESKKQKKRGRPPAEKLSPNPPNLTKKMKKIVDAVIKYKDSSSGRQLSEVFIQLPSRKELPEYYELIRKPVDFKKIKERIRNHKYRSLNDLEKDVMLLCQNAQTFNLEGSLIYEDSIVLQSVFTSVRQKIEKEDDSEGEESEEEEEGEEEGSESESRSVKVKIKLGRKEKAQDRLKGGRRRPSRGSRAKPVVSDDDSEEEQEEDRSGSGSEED

For `CS(=O)(=O)n1ccc(C(=O)NCC(=O)Nc2nc(-c3cccc(-c4cccc(CNC(=O)CCCOc5cccc6c5C(=O)N(C5CCC(=O)NC5=O)C6=O)c4)c3)cs2)c1` (stereo not shown) [Compound 30], in test [1], the DC50 is above 10 µM and the “BRM HiBit Degradation Maximum measured” value is on record as “C (‘C’ = Maximum degradation <50%)”. Besides, in test [2], the DC50 was above 10 µM and the Dmax is below 50%.

With `CS(=O)(=O)n1ccc(C(=O)NCC(=O)Nc2nc(-c3cccc(-c4ccnc(N5CCN(C(=O)CCOCCOCCNc6cccc7c6C(=O)N(C6CCC(=O)NC6=O)C7=O)CC5)c4)c3)cs2)c1` (stereo not shown) [Compound 31, N-[2-[[4-[3-[2-[4-[3-[2-[2-[[2-(2,6-dioxo-3-piperidyl)-1,3-dioxo-isoindolin-4-yl]amino]ethoxy]ethoxy]propanoyl]piperazin-1-yl]-4-pyridyl]phenyl]thiazol-2-yl]amino]-2-oxo-ethyl]-1-methylsulfonyl-pyrrole-3-carboxamide], in test [1], the DC50 was in the range of 0.1 to 1 µM and the “BRM HiBit Degradation Maximum measured” value is recorded as “A (‘A’ = Maximum degradation >75%)”. Also, in test [2], the DC50 is 0.1 to 1 µM and the Dmax was above 75%.

Regarding `CS(=O)(=O)n1ccc(C(=O)NCC(=O)Nc2nc(-c3cccc(-c4ccnc(N5CCN(C(=O)C6CC6CNC(=O)COc6cccc7c6C(=O)N(C6CCC(=O)NC6=O)C7=O)CC5)c4)c3)cs2)c1` (stereo not shown) [Compound 32, N-[2-[[4-[3-[2-[4-[2-[[[2-[2-(2,6-dioxo-3-piperidyl)-1,3-dioxo-isoindolin-4-yl]oxyacetyl]amino]methyl]cyclopropanecarbonyl]piperazin-1-yl]-4-pyridyl]phenyl]thiazol-2-yl]amino]-2-oxo-ethyl]-1-methylsulfonyl-pyrrole-3-carboxamide], in test [1], the DC50 is above 10 µM and the “BRM HiBit Degradation Maximum measured” value was “C (‘C’ = Maximum degradation <50%)”. In addition, in test [2], the DC50 was above 10 µM and the Dmax was below 50%.

Regarding `CS(=O)(=O)n1ccc(C(=O)NCC(=O)Nc2nc(-c3cccc(-c4ccnc(N5CCN(C(=O)CCCOc6cccc7c6C(=O)N(C6CCC(=O)NC6=O)C7=O)CC5)c4)c3)cs2)c1` (stereo not shown) [Compound 33, N-[2-[[4-[3-[2-[4-[4-[2-(2,6-dioxo-3-piperidyl)-1,3-dioxo-isoindolin-4-yl]oxybutanoyl]piperazin-1-yl]-4-pyridyl]phenyl]thiazol-2-yl]amino]-2-oxo-ethyl]-1-methylsulfonyl-pyrrole-3-carboxamide], in test [1], the DC50 was above 10 µM and the “BRM HiBit Degradation Maximum measured” value is given as “C (‘C’ = Maximum degradation <50%)”. Also, in test [2], the DC50 is above 10 µM and the Dmax is below 50%.

In the case of `CS(=O)(=O)n1ccc(C(=O)NCC(=O)Nc2nc(-c3cccc(-c4ccnc(N5CCN(C(=O)CCOCCOCCOc6cccc7c6C(=O)N(C6CCC(=O)NC6=O)C7=O)CC5)c4)c3)cs2)c1` (stereo not shown) [Compound 34, N-(2-((4-(3-(2-(4-(3-(2-(2-((2-(2,6-dioxopiperidin-3-yl)-1,3-dioxoisoindolin-4-yl)oxy)ethoxy)ethoxy)propanoyl)piperazin-1-yl)pyridin-4-yl)phenyl)thiazol-2-yl)amino)-2-oxoethyl)-1-(methylsulfonyl)-1H-pyrrole-3-carboxamide], in test [1], the DC50 lay within 0.1 to 1 µM; the “BRM HiBit Degradation Maximum measured” value is “B (‘B’ = Maximum degradation ≥50% and ≤75%)”. Besides, in test [2], the DC50 was in the range of 0.1 to 1 µM and the Dmax was 50 to 75%.

Regarding `CS(=O)(=O)n1ccc(C(=O)NCC(=O)Nc2nc(-c3cccc(-c4ccnc(N5CCN(C(=O)CCCCCCCCCCNc6ccc7c(c6)C(=O)N(C6CCC(=O)NC6=O)C7=O)CC5)c4)c3)cs2)c1` (stereo not shown) [Compound 35, N-[2-[[4-[3-[2-[4-[11-[[2-(2,6-dioxo-3-piperidyl)-1,3-dioxo-isoindolin-5-yl]amino]undecanoyl]piperazin-1-yl]-4-pyridyl]phenyl]thiazol-2-yl]amino]-2-oxo-ethyl]-1-methylsulfonyl-pyrrole-3-carboxamide], in test [1], the DC50 fell in the range of 0.1 to 1 µM and the “BRM HiBit Degradation Maximum measured” value is “A (‘A’ = Maximum degradation >75%)”. In test [2], the DC50 is below 0.1 µM and the Dmax was above 75%.

Consider `CS(=O)(=O)n1ccc(C(=O)NCC(=O)Nc2nc(-c3cccc(-c4ccnc(OCCNC(=O)CCCOc5cccc6c5C(=O)N(C5CCC(=O)NC5=O)C6=O)c4)c3)cs2)c1` (stereo not shown) [Compound 36, N-[2-[[4-[3-[2-[2-[4-[2-(2,6-dioxo-3-piperidyl)-1,3-dioxo-isoindolin-4-yl]oxybutanoylamino]ethoxy]-4-pyridyl]phenyl]thiazol-2-yl]amino]-2-oxo-ethyl]-1-methylsulfonyl-pyrrole-3-carboxamide], for which, in test [1], the DC50 is above 10 µM and the “BRM HiBit Degradation Maximum measured” value is recorded as “C (‘C’ = Maximum degradation <50%)”. Besides, in test [2], the DC50 is above 10 µM and the Dmax was below 50%.

For `CS(=O)(=O)n1ccc(C(=O)NCC(=O)Nc2nc(-c3cccc(-c4ccnc(OCCNC(=O)C5CC5CNC(=O)COc5cccc6c5C(=O)N(C5CCC(=O)NC5=O)C6=O)c4)c3)cs2)c1` (stereo not shown) [Compound 37, N-[2-[[4-[3-[2-[2-[[2-[[[2-[2-(2,6-dioxo-3-piperidyl)-1,3-dioxoisoindolin-4-yl]oxyacetyl]amino]methyl]cyclopropanecarbonyl]amino]ethoxy]-4-pyridyl]phenyl]thiazol-2-yl]amino]-2-oxoethyl]-1-methylsulfonyl-pyrrole-3-carboxamide], in test [1], the DC50 was above 10 µM and the “BRM HiBit Degradation Maximum measured” value is recorded as “C (‘C’ = Maximum degradation <50%)”. In test [2], the DC50 is above 10 µM and the Dmax is below 50%.

Turning to `CS(=O)(=O)n1ccc(C(=O)NCC(=O)Nc2nc(-c3cccc(-c4ccnc(OCCNC(=O)CCOCCOCCOc5ccc6c(c5)C(=O)N(C5CCC(=O)NC5=O)C6=O)c4)c3)cs2)c1` (stereo not shown) [Compound 38, N-(2-((4-(3-(2-(2-(3-(2-(2-((2-(2,6-dioxopiperidin-3-yl)-1,3-dioxoisoindolin-5-yl)oxy)ethoxy)ethoxy)propanamido)ethoxy)pyridin-4-yl)phenyl)thiazol-2-yl)amino)-2-oxoethyl)-1-(methylsulfonyl)-1H-pyrrole-3-carboxamide], in test [1], the DC50 is above 10 µM and the “BRM HiBit Degradation Maximum measured” value is listed as “C (‘C’ = Maximum degradation <50%)”. In test [2], the DC50 was 0.1 to 1 µM and the Dmax was above 75%.

In the case of `CS(=O)(=O)n1ccc(C(=O)NCC(=O)Nc2nc(-c3cccc(-c4ccnc(N5CCN(C(=O)C6CC6CNC(=O)COc6ccc7c(c6)C(=O)N(C6CCC(=O)NC6=O)C7=O)CC5)c4)c3)cs2)c1` (stereo not shown) [Compound 39, N-[2-[[4-[3-[2-[4-[2-[[[2-[2-(2,6-dioxo-3-piperidyl)-1,3-dioxo-isoindolin-5-yl]oxyacetyl]amino]methyl]cyclopropanecarbonyl]piperazin-1-yl]-4-pyridyl]phenyl]thiazol-2-yl]amino]-2-oxo-ethyl]-1-methylsulfonyl-pyrrole-3-carboxamide], in test [1], the DC50 was above 10 µM and the “BRM HiBit Degradation Maximum measured” value was “C (‘C’ = Maximum degradation <50%)”. Besides, in test [2], the DC50 is above 10 µM and the Dmax was below 50%.
